# Patent publication US12653191B2, “Active compound combinations” (Bayer Aktiengesellschaft, priority 2020, dated 2026)
# Values joined by “and” are separate entries in the source; they are usually repeats but may differ in a detail not shown here. Identical values can stand only once. Like-named read-outs stand apart in the source and are kept apart here.
# How the values were obtained:
# Parastagonospora nodorum [1] = assay: in vitro-Test with fungal microorganisms, Method A (tables H1-H4); assay type: cell-based
# Outline: (§1)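 Readout: extinction at 620 nm, measured at start and again 3-5 days later, giving efficacy versus untreated control (0% = control growth, 100% = no growth). Compounds were evaporated from methanol/emulsifier before adding potato dextrose medium with fungal spores or mycelium; incubation 20° C, 85% RH.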
# Colletotrichum coccodes = assay: in vitro-Test with fungal microorganisms, Method B (tables J1-J11); assay type: cell-based
# Outline: (§2)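 Steps: solvent evaporation leaves the compound coating the wells; fungus-inoculated liquid growth medium goes on top; absorbance at 600 nm is measured; incubation runs 3 to 7 days at 20° C. with 85% relative humidity. Inhibition is then read photometrically and expressed as efficacy against untreated control.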
# Diaporthe citri [2] = assay: in vitro-Test with fungal microorganisms, Method B (tables F12-F15); assay type: cell-based
# Outline: as §2
# Cercospora beticola [3] = assay: in vitro-Test with fungal microorganisms, Method B (tables C11-C20); assay type: cell-based
# Outline: as §2
# [4] = tested on: Colletotrichum lindemuthianum; assay: in vitro-Test with fungal microorganisms, Method A (tables D1-D8); assay type: cell-based
# Outline: as §1
# Botrytis cinerea [5] = assay: in vitro-Test with fungal microorganisms, Method A (tables B1-B14); assay type: cell-based
# Outline: as §1
# Alternaria alternate = assay: in vitro-Test with fungal microorganisms, Method A (tables A1-A12); assay type: cell-based, Alternaria alternata; details: applied alone
# Outline: as §1
# Fusarium culmorum [6] = assay: in vitro-Test with fungal microorganisms, Method A (tables G1-G4); assay type: cell-based
# Outline: as §1
# Parastagonospora nodorum [7] = assay: in vitro-Test with fungal microorganisms, Method B (tables H5-H8); assay type: cell-based
# Outline: as §2
# Diaporthe citri [8] = assay: in vitro-Test with fungal microorganisms, Method A (tables F1-F11); assay type: cell-based
# Outline: as §1
# Cordana musae = assay: in vitro-Test with fungal microorganisms, Method A (tables E1-E8); assay type: cell-based
# Outline: as §1
# [9] = tested on: Ustilago segetum var. avenae; assay: in vitro-Test with fungal microorganisms, Method A (tables I1-I5); assay type: cell-based; details: alone
# Outline: as §1
# Fusarium culmorum [10] = assay: in vitro-Test with fungal microorganisms, Method B (tables G5-G15); assay type: cell-based; details: single active compound
# Outline: as §2
# [11] = tested on: Ustilago segetum var. avenae; assay: in vitro-Test with fungal microorganisms, Method B (tables I6-I11); assay type: cell-based
# Outline: as §2
# Alternaria alternata = assay: in vitro-Test with fungal microorganisms, Method B (tables A13-A22); assay type: cell-based
# Outline: as §2
# Cercospora beticola [12] = assay: in vitro-Test with fungal microorganisms, Method A (tables C1-C10); assay type: cell-based
# Outline: as §1
# Botrytis cinerea [13] = assay: in vitro-Test with fungal microorganisms, Method B (tables B15-B18); assay type: cell-based
# Outline: as §2
# [14] = Log P by HPLC on reversed phase columns (LC-UV), method [a]: acidic range, 0.1% formic acid in water / acetonitrile; assay type: physicochemical
# Description: Measurement of Log P Values
# Measurement of Log P values as provided herein was performed according to EEC directive 79/831 Annex V.A8 by HPLC (High Performance Liquid Chromatography) on reversed phase columns with the following methods: • ^[a]
# If more than one Log P value is available within the same method, all the values are given and separated by “+”.
# [15] = Colletotrichum coccodes, read-out: Efficacy %
# [16] = Colletotrichum coccodes, applied alone, read-out: Efficacy %
# [17] = method [a], acidic range (0.1% formic acid), Table 17, compounds of formula (10)
structure (smiles),measurement,setting,value
"CCCN(CC)CC1COC2(CCC(C(C)(C)C)CC2)O1 (centres unmarked) [(1.020) spiroxamine, spiroxamine]",Efficacy,"Parastagonospora nodorum [1]; single active compound, 0.8 ppm",2%
same,Efficacy,"Parastagonospora nodorum [1]; single active compound, 4.0 ppm",4%
same,Efficacy,"Parastagonospora nodorum [1]; single active compound, 20.0 ppm",7%
same,inhibition of growth at 0.8 ppm,Colletotrichum coccodes; [15],0%
same,inhibition of growth at 4 ppm,"Colletotrichum coccodes; Colletotrichum coccodes, 4 ppm, read-out: Efficacy %",0%
same,inhibition of growth at 20 ppm,Colletotrichum coccodes; [15],0%
same,inhibition of growth at 0.8 ppm,Colletotrichum coccodes; [16],0%
same,inhibition of growth at 20 ppm,Colletotrichum coccodes; [16],39%
same,Efficacy,"Diaporthe citri [2]; Table F15, 4 ppm alone",0%
same,Efficacy,"Diaporthe citri [2]; Table F15, 20 ppm alone",4%
same,inhibition of growth at 4 ppm,"Cercospora beticola [3]; Cercospora beticola, single compound, 4 ppm, read-out: Efficacy %",6%
same,inhibition of growth at 0.8 ppm,"[4]; Colletotrichum lindemuthianum, mixing partner alone, 0.8 ppm, read-out: Efficacy %",0%
same,inhibition of growth at 20 ppm,"[4]; Colletotrichum lindemuthianum, mixing partner alone, 20.0 ppm, read-out: Efficacy %",6%
same,inhibition of growth at 0.8 ppm,"[4]; Colletotrichum lindemuthianum, single active at 0.8 ppm, read-out: Efficacy %",0%
same,inhibition of growth at 4 ppm,"[4]; Colletotrichum lindemuthianum, single active at 4.0 ppm, read-out: Efficacy %",8%
same,inhibition of growth at 20 ppm,"[4]; Colletotrichum lindemuthianum, single active at 20.0 ppm, read-out: Efficacy %",0%
same,inhibition of growth at 0.8 ppm,"Botrytis cinerea [5]; Botrytis cinerea, 0.8 ppm, read-out: Efficacy",0%
same,inhibition of growth at 4 ppm,"Botrytis cinerea [5]; Botrytis cinerea, 4.0 ppm, read-out: Efficacy",0%
same,inhibition of growth at 20 ppm,"Botrytis cinerea [5]; Botrytis cinerea, read-out: Efficacy",18%
same,inhibition of growth at 0.8 ppm,"Botrytis cinerea [5]; Botrytis cinerea, alone, 0.8 ppm, read-out: Efficacy %",0%
same,inhibition of growth at 20 ppm,"Botrytis cinerea [5]; Botrytis cinerea, alone, read-out: Efficacy %",14%
same,Efficacy %,"Botrytis cinerea [5]; alone, 0.8 ppm",0%
same,inhibition of growth at 0.8 ppm,"Alternaria alternate; Alternaria, 0.8 ppm, read-out: Efficacy %",18%
same,inhibition of growth at 4 ppm,"Alternaria alternate; Alternaria, 4 ppm, read-out: Efficacy %",12%
same,inhibition of growth at 20 ppm,"Alternaria alternate; Alternaria, 20 ppm, read-out: Efficacy %",16%
same,Efficacy,"Fusarium culmorum [6]; 4.0 ppm, alone",0%
same,inhibition of growth at 20 ppm,"Fusarium culmorum [6]; Fusarium culmorum, 20.0 ppm, alone, read-out: Efficacy",0%
same,inhibition of growth at 0.8 ppm,"Parastagonospora nodorum [7]; Parastagonospora nodorum, 0.8 ppm, read-out: Efficacy",5%
same,inhibition of growth at 4 ppm,"Parastagonospora nodorum [7]; Parastagonospora nodorum, 4 ppm, read-out: Efficacy",5%
same,inhibition of growth at 20 ppm,"Parastagonospora nodorum [7]; Parastagonospora nodorum, 20 ppm, read-out: Efficacy",17%
same,inhibition of growth at 0.8 ppm,"Diaporthe citri [8]; Diaporthe citri, applied alone, 0.8 ppm, read-out: Efficacy",6%
same,inhibition of growth at 4 ppm,"Diaporthe citri [8]; Diaporthe citri, applied alone, 4.0 ppm, read-out: Efficacy",8%
same,inhibition of growth at 20 ppm,"Diaporthe citri [8]; Diaporthe citri, applied alone, 20.0 ppm, read-out: Efficacy",0%
same,inhibition of growth at 20 ppm,"Cordana musae; Neocordana musae, mixing partner alone, 20.0 ppm, read-out: Efficacy %",9%
same,Efficacy %,"Cordana musae; mixing partner alone, 0.8 ppm",0%
same,inhibition of growth at 0.8 ppm,"[9]; 0.8 ppm, read-out: Efficacy %",3%
same,inhibition of growth at 4 ppm,"[9]; 4.0 ppm, read-out: Efficacy %",71%
same,inhibition of growth at 20 ppm,"[9]; 20.0 ppm, read-out: Efficacy %",100%
"CC(O)(Cn1cncn1)c1ccc(Oc2ccc(Cl)cc2)cc1C(F)(F)F (centres unmarked) [(1.055) mefentrifluconazole, mefentrifluconazole]",Efficacy,Fusarium culmorum [10]; 0.008 ppm,11% and 3%
same,Efficacy,Fusarium culmorum [10]; 0.04 ppm,16% and 24%
same,Efficacy,Fusarium culmorum [10]; 1 ppm,24% and 33%
same,Efficacy %,[11]; 0.008 ppm,4%
same,Efficacy %,[11]; 0.04 ppm,3%
same,Efficacy %,[11]; 0.2 ppm,41%
same,Efficacy %,[11]; 1 ppm,100%
same,Efficacy %,"[11]; alone, 0.2 ppm",53%
same,Efficacy %,"[11]; alone, 1 ppm",100%
same,Efficacy,Parastagonospora nodorum [1]; 0.008 ppm,89%
same,Efficacy,Parastagonospora nodorum [1]; 0.04 ppm,99%
same,Efficacy,Parastagonospora nodorum [1]; 0.2 ppm,99%
same,Efficacy,Parastagonospora nodorum [1]; 1.0 ppm,100%
same,Efficacy,"Parastagonospora nodorum [1]; single active compound, 0.008 ppm",90%
same,Efficacy,"Parastagonospora nodorum [1]; single active compound, 0.04 ppm",97%
same,Efficacy,"Parastagonospora nodorum [1]; single active compound, 0.2 ppm",100%
same,Efficacy,"Parastagonospora nodorum [1]; single active compound, 1.0 ppm",100%
same,Efficacy %,Colletotrichum coccodes; 0.008 ppm,0%
same,Efficacy %,Colletotrichum coccodes; 0.2 ppm,34%
same,Efficacy %,Colletotrichum coccodes; 1 ppm,100%
same,Efficacy %,Colletotrichum coccodes; single active compound at 0.2 ppm,22%
same,Efficacy,Alternaria alternata; 0.008 ppm,9%
same,Efficacy,Alternaria alternata; 0.04 ppm,19%
same,Efficacy,Alternaria alternata; 0.2 ppm,91%
same,Efficacy,"Alternaria alternata; single compound, 0.2 ppm",65%
same,Efficacy,"Alternaria alternata; single compound, 1 ppm",99%
same,Efficacy,"Diaporthe citri [2]; Table F14, 0.008 ppm alone",8%
same,Efficacy,"Diaporthe citri [2]; Table F14, 0.04 ppm alone",21%
same,Efficacy,"Diaporthe citri [2]; Table F14, 0.2 ppm alone",94%
same,Efficacy,"Diaporthe citri [2]; Table F14, 1 ppm alone",99%
same,Efficacy %,Cercospora beticola [3]; 0.008 ppm,24%
same,Efficacy %,Cercospora beticola [3]; 0.04 ppm,84%
same,Efficacy %,"Cercospora beticola [3]; single compound, 0.008 ppm",14%
same,Efficacy %,"Cercospora beticola [3]; single compound, 0.04 ppm",93%
same,Efficacy %,"[4]; mixing partner alone, 0.008 ppm",0%
same,Efficacy %,"[4]; mixing partner alone, 0.04 ppm",0%
same,Efficacy %,"[4]; mixing partner alone, 0.2 ppm",6%
same,Efficacy %,"[4]; mixing partner alone, 1.0 ppm",13%
same,Efficacy %,[4]; single active at 0.008 ppm,7% and 0%
same,Efficacy %,[4]; single active at 0.04 ppm,0% and 3%
same,Efficacy %,[4]; single active at 0.2 ppm,11%
same,Efficacy %,[4]; single active at 1.0 ppm,0%
same,Efficacy,Botrytis cinerea [5]; 0.008 ppm,0%
same,Efficacy,Botrytis cinerea [5]; 0.04 ppm,37%
same,Efficacy,Botrytis cinerea [5]; 0.2 ppm,78%
same,Efficacy %,"Botrytis cinerea [5]; alone, 0.008 ppm",0%
same,Efficacy %,"Botrytis cinerea [5]; alone, 0.04 ppm",0%
same,Efficacy %,"Botrytis cinerea [5]; alone, 0.2 ppm",53%
same,Efficacy %,"Botrytis cinerea [5]; alone, 1.0 ppm",100%
same,Efficacy %,Alternaria alternate; 0.008 ppm,9%
same,Efficacy %,Alternaria alternate; 0.04 ppm,58% and 32%
same,Efficacy %,Alternaria alternate; 0.2 ppm,96% and 100%
same,Efficacy %,Alternaria alternate; 1.0 ppm,100% and 99%
same,Efficacy,"Fusarium culmorum [6]; Table G1, 0.008 ppm alone",20%
same,Efficacy,"Fusarium culmorum [6]; Table G1, 0.04 ppm alone",22%
same,Efficacy,"Fusarium culmorum [6]; Table G1, 0.2 ppm alone",5%
same,Efficacy,"Fusarium culmorum [6]; Table G1, 1.0 ppm alone",33%
same,Efficacy %,Cercospora beticola [12]; 0.008 ppm,12%
same,Efficacy %,Cercospora beticola [12]; 0.008 ppm alone,60% and 80%
same,Efficacy %,Cercospora beticola [12]; 0.04 ppm,100%
same,Efficacy %,Cercospora beticola [12]; 0.04 ppm alone,100% and 91%
same,Efficacy %,Cercospora beticola [12]; 0.2 ppm,100%
same,Efficacy %,Cercospora beticola [12]; 0.2 ppm alone,100%
same,Efficacy %,Cercospora beticola [12]; 1.0 ppm,100%
same,Efficacy %,Cercospora beticola [12]; 1.0 ppm alone,100%
same,Efficacy,Parastagonospora nodorum [7]; 0.008 ppm,84%
same,Efficacy,Parastagonospora nodorum [7]; 0.04 ppm,99%
same,Efficacy,"Diaporthe citri [8]; applied alone, 0.008 ppm",0%
same,Efficacy,"Diaporthe citri [8]; applied alone, 0.04 ppm",60% and 38%
same,Efficacy,"Diaporthe citri [8]; applied alone, 0.2 ppm",100%
same,Efficacy,"Diaporthe citri [8]; applied alone, 1.0 ppm",100%
same,Efficacy,"Diaporthe citri [8]; single active, 0.008 ppm",17%
same,Efficacy,"Diaporthe citri [8]; single active, 0.04 ppm",69%
same,Efficacy,"Diaporthe citri [8]; single active, 0.2 ppm",99%
same,Efficacy,"Diaporthe citri [8]; single active, 1.0 ppm",100%
same,Efficacy %,Botrytis cinerea [13]; 0.008 ppm alone,0%
same,Efficacy %,Botrytis cinerea [13]; 0.04 ppm alone,0%
same,Efficacy %,Botrytis cinerea [13]; 0.2 ppm alone,30%
same,Efficacy %,"Cordana musae; single substance, 0.008 ppm",4%
same,Efficacy %,"Cordana musae; single substance, 0.04 ppm",29%
same,Efficacy %,"Cordana musae; single substance, 0.2 ppm",100%
same,Efficacy %,"Cordana musae; single substance, 1.0 ppm",100%
same,Efficacy %,[9]; 0.008 ppm,0%
same,Efficacy %,[9]; 0.04 ppm,4%
same,Efficacy %,[9]; 0.2 ppm,100%
same,Efficacy %,[9]; 1.0 ppm,100%
CON(C)C(=O)c1cc(Cl)nnc1Oc1cccc(C(F)(F)F)c1 [Compound 1-07],LogP,"[14]; method [a], acidic range (0.1% formic acid), Table 3, compounds of formula (1)",2.90^[a]
Cc1cc(C(=O)NC(CON2C(=O)c3ccccc3C2=O)Cc2ccc(C)c(C)c2)c(Oc2cccc(Cl)c2F)nn1 (centres unmarked) [Compound 3-45],LogP,"[14]; method [a], acidic range (0.1% formic acid), Table 7, compounds of formula (3)",4.42^[a]
COc1cccc(Oc2nnc(Cl)cc2C#N)c1 [Compound 9-08],chromatographic logP,"[14]; method [a], acidic range (0.1% formic acid), Table 15, compounds of formula (9)",2.75
N/C(=N\O)c1cc(Cl)nnc1Oc1cccc(Cl)c1 [Compound 10-04],chromatographic logP,[14]; [17],2
N/C(=N\O)c1cc(Cl)nnc1Oc1cccc(Br)c1F [Compound 10-05],chromatographic logP,[14]; [17],2.21
N/C(=N\O)c1cc(Cl)nnc1Oc1cccc(C2CC2)c1F [Compound 10-07],chromatographic logP,[14]; [17],2.34
N/C(=N\O)c1cc(Cl)nnc1Oc1cccc(C2CC2)c1 [Compound 10-08],chromatographic logP,[14]; [17],2.19
N/C(=N\O)c1cc(Cl)nnc1Oc1cccc(C(F)F)c1F [Compound 10-09],chromatographic logP,[14]; [17],1.91
Cc1ccc(CC(CCl)NC(=NO)c2cc(Cl)nnc2Oc2cccc(C(F)(F)F)c2)c(C)c1 (centres unmarked) [Compound 20-08],LogP,[14]; method [a],2.77^[a]
"FC(F)(F)c1cccc(Oc2nnc(Cl)cc2C2=NOC[C@H](Cc3ccccc3)N2)c1 [Compound I-070, (5S)-5-benzyl-3-[6-chloro-3-[3-(trifluoro-methyl)phenoxy]pyridazin-4-yl]-5,6-dihydro-4H-1,2,4-oxadiazine]",LogP,"[14]; method [a]: HPLC, acidic range, 0.1% formic acid in water / acetonitrile",3.81^[a]
